Measurements taken from PubChem BioAssay AID493141 (Sanford-Burnham Center for Chemical Genomics, 2011).
pIC50: −log10 of the molar value. Values joined by “and” are separate entries in the source; they are usually repeats but may differ in a detail not shown here. Equal values may be shown once. Active and inactive are the calls of the source. How the calls were made is not given here.

Biological target: Alkaline phosphatase, tissue-nonspecific isozyme (Homo sapiens) (UniProt P05186)
Test: inhibition of tissue-nonspecific alkaline phosphatase – biochemical, selectivity assay for human IAP inhibitor project, SAR follow-up (AID 493141)
Conditions: isolated enzyme, CDP-Star luminescence, 30 min

Alkaline phosphatase, tissue-nonspecific isozyme (Homo sapiens), sequence (P05186 whole entry, looked up): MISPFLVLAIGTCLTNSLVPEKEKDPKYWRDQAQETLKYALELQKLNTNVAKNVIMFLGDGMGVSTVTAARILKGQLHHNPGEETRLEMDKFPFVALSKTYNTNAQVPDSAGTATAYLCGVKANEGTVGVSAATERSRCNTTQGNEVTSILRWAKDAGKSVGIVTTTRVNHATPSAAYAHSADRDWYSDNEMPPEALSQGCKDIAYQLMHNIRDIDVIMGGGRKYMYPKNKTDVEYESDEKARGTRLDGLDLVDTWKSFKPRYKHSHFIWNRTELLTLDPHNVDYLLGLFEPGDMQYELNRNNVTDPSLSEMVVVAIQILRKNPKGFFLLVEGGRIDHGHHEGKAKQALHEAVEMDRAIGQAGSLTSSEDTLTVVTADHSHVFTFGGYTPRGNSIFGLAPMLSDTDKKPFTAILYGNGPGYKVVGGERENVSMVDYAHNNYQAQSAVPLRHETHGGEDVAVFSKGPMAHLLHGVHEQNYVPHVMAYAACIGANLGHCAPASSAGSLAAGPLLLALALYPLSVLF

Row | IC50 | pIC50 | SMILES
1 | > 100 µM (inactive) | – | Cc1ccc2nc(NNC(=O)c3ccc4c(c3)OCCO4)sc2c1
2 | > 100 µM (inactive) | – | Cc1cccc(NC(=S)NN=Cc2ccc3c(c2)OCO3)c1
3 | > 100 µM (inactive) | – | COC(=O)/C=C1/S/C(=N/NC(=O)c2ccccc2)NC1=O
4 | > 100 µM (inactive) | – | COC(=O)/C=C1\S/C(=N/N=C/CC(=O)OC)NC1=O
5 | – | 5.20 | NS(=O)(=O)c1ccc(Nc2nc(-c3ccc(O)c(O)c3)cs2)cc1
6 | > 100 µM (inactive) | – | Cc1ccc(Nc2nc(-c3ccc(O)c(C(N)=O)c3)cs2)cc1
7 | > 100 µM (inactive) | – | COC(=O)/C=C1/S/C(=N/N=Cc2ccc(N(C)C)cc2)NC1=O
8 | – | 4.10 | Cc1ccc(Nc2nc(-c3ccc(O)c(O)c3)cs2)cc1F
9 | > 100 µM (inactive) | – | COC(=O)/C=C1\S/C(=N/N=C/c2ccc(Cl)cc2)NC1=O
10 | > 100 µM (inactive) | – | CC(=NNC(=S)Nc1ccccc1)c1ccc2c(c1)OCO2
11 | > 100 µM (inactive) | – | Cc1ccc(C)c(Nc2nc(-c3ccc(O)cc3O)cs2)c1
12 | > 100 µM (inactive) | – | COc1ccc(C=NNC(=S)Nc2ccccc2[N+](=O)[O-])cc1O
13 | > 100 µM (inactive) | – | CCN(CC)S(=O)(=O)c1ccc(-c2csc(=Nc3cccc4ccccc34)n2C)cc1
14 | > 100 µM (inactive) | – | Cc1ccc(Nc2nc(-c3ccc(O)cc3O)cs2)cc1F
15 | > 100 µM (inactive) | – | Cc1cccc2sc(NNC(=O)c3ccc4c(c3)OCCO4)nc12
16 | > 100 µM (inactive) | – | Cc1cc(C)cc(Nc2nc(-c3ccc(O)cc3O)cs2)c1
17 | > 100 µM (inactive) | – | COc1cc(/C=N/N=C2/SCC(=O)N2c2ccc(O)cc2)ccc1O
18 | > 100 µM (inactive) | – | Cc1cccc(C)c1NC(=S)N/N=C/c1ccc(O)c(O)c1O

Row | IC50 | pIC50 | SMILES
19 | > 100 µM (inactive) | – | Oc1ccc(-c2csc(Nc3ccccc3)n2)c(O)c1
20 | > 100 µM (inactive) | – | COC(=O)C/C=N/N=C1\NC(=O)/C(=C/C(=O)O)S1
21 | > 100 µM (inactive) | – | COc1ccc(-c2csc(Nc3cccc4ccccc34)n2)cc1F
22 | – | 4.26 | Oc1ccc(-c2csc(Nc3ccc(F)cc3)n2)cc1O
23 | > 100 µM (inactive) | – | COc1cc(C=NNC(=S)Nc2cccc(S(=O)(=O)N(C)C)c2)cc(OC)c1O
24 | > 100 µM (inactive) | – | COc1cc(C=NNC(=S)Nc2cccc(S(=O)(=O)N(C)C)c2)ccc1O
25 | > 100 µM (inactive) | – | COC(=O)/C=C1\SC(N=Nc2c(O)[nH]c3ccccc23)=NC1=O
26 | > 100 µM (inactive) | – | COc1cccc(Nc2nc(-c3ccc(O)cc3)cs2)c1
27 | > 100 µM (inactive) | – | COc1cc(C(=O)NNC(=S)Nc2ccc(S(N)(=O)=O)cc2)cc(OC)c1OC
28 | > 100 µM (inactive) | – | N#CCCn1cc(/C=N/N=C2/NC(=O)C(CC(=O)O)S2)c(-c2ccc(F)cc2)n1 (stereo not given)
29 | > 100 µM (inactive) | – | FC(F)(F)c1cccc(NC(=S)NCCC(c2ccccc2)c2ccccc2)c1
30 | – | 4.37 | O=[N+]([O-])c1ccccc1NC(=S)NN=Cc1ccc(O)c(O)c1
31 | > 100 µM (inactive) | – | Cc1ccc(Nc2nc(-c3ccc(O)cc3O)cs2)cc1
32 | > 100 µM (inactive) | – | CCOc1cc(C=N/N=C2/NC(=O)C(CC(=O)O)S2)ccc1OCc1ccccc1Cl (stereo not given)
33 | > 100 µM (inactive) and 83.7 µM | – | COc1ccc(Cl)cc1Nc1nc(-c2ccc(O)c(O)c2)cs1
34 | > 100 µM (inactive) | – | Cc1cc(=O)oc2cc(NC(=S)NCCC(c3ccccc3)c3ccccc3)ccc12
35 | > 100 µM (inactive) | – | COc1ccc(/C=N/N=C2/NC(=O)C(CC(=O)O)S2)cc1OC (stereo not given)

More lines, now with the values behind:

Row | SMILES | IC50 | pIC50
36 | CN(C)S(=O)(=O)c1cccc(NC(=S)NN=Cc2ccc(O)c(O)c2O)c1 | > 100 µM (inactive) | –
37 | COc1cc([N+](=O)[O-])ccc1NC(=S)NCCC(c1ccccc1)c1ccccc1 | > 100 µM (inactive) | –
38 | Cc1ccc(-c2ccc(/C=N/N=C3\NC(=O)C(CC(=O)O)S3)o2)c([N+](=O)[O-])c1 (stereo not given) | > 100 µM (inactive) | –
39 | Cc1c(Cl)cccc1Nc1nc(-c2ccc(O)c(O)c2)cs1 | 41 µM and > 100 µM (inactive) | –
40 | COc1cc(C=NN=C2SC(CC(=O)O)C(=O)N2c2ccc(O)cc2)ccc1O (stereo not given) | > 100 µM (inactive) | –
41 | COc1ccc(/C=N/N=C2\NC(=O)C(CC(=O)O)S2)c(OC)c1 (stereo not given) | > 100 µM (inactive) | –
42 | COC(=O)/C=C1/S/C(=N/NC(=O)c2ccccc2OC)NC1=O | > 100 µM (inactive) | –
43 | COc1ccc(-c2csc(Nc3cccc4ccccc34)n2)cc1 | > 100 µM (inactive) | –
44 | COc1ccc(C=NN=C2SC(CC(=O)O)C(=O)N2c2ccc(O)cc2)cc1 (stereo not given) | > 100 µM (inactive) | –
45 | O=[N+]([O-])c1ccc(NC(=S)NCCC(c2ccccc2)c2ccccc2)cc1 | > 100 µM (inactive) | –
46 | Oc1ccc(Nc2nc(-c3ccc(O)c(O)c3)cs2)cc1 | – | 4.75
47 | CCc1ccccc1Nc1nc(-c2ccc(O)c(O)c2)cs1 | – | 4.52 and 4.67
48 | Cc1ccc(Nc2nc(-c3ccc(O)c(O)c3)cs2)cc1 | > 100 µM (inactive) | –
49 | Cc1cccc(NC(=S)NNC(=O)c2ccc3c(c2)OCO3)c1 | > 100 µM (inactive) | –
50 | CCOc1cc(/C=N/N=C2\NC(=O)C(CC(=O)O)S2)ccc1O (stereo not given) | > 100 µM (inactive) | –
51 | CC(C)(C)c1ccc(/C=N/N=C2\NC(=O)C(CC(=O)O)S2)cc1 (stereo not given) | > 100 µM (inactive) | –
52 | COc1ccc(NC(=S)NCCC(c2ccccc2)c2ccccc2)cc1 | > 100 µM (inactive) | –
53 | O=C(O)CC1S/C(=N/N=C/c2ccco2)NC1=O (stereo not given) | > 100 µM (inactive) | –
54 | NS(=O)(=O)c1ccc(Nc2nc(-c3ccc(O)cc3O)cs2)cc1 | – | 4.22
55 | Cn1c(=S)n(N=Cc2ccc3c(c2)OCO3)c2ccccc21 | > 100 µM (inactive) | –

Row | SMILES | IC50 | pIC50
56 | O=S(=O)(Nc1ncccn1)c1ccc(NC(=S)NCCC(c2ccccc2)c2ccccc2)cc1 | > 100 µM (inactive) | –
57 | COC(=O)/C=C1/S/C(=N/NC(=O)c2ccc(Cl)cc2Cl)NC1=O | > 100 µM (inactive) | –
58 | Cc1ccc(Cl)cc1Nc1nc(-c2ccc(O)c(O)c2)cs1 | – | 4.29
59 | S=C(NCCC(c1ccccc1)c1ccccc1)Nc1ccc(Cl)cc1Cl | > 100 µM (inactive) | –
60 | COc1ccc(C=Nn2c(=S)n(C)c3ccccc32)cc1OC | > 100 µM (inactive) | –
61 | COC(=O)/C=C1/S/C(=N/NC(=O)c2ccccc2C)NC1=O | > 100 µM (inactive) | –
62 | O=[N+]([O-])c1ccccc1NC(=S)N/N=C/c1ccc(O)c(O)c1O | – | 4.06
63 | O=S(=O)(c1ccc(NC(=S)N/N=C/c2ccc(O)c(O)c2O)cc1)N1CCOCC1 | > 100 µM (inactive) | –
64 | COC(=O)/C=C1/S/C(=N/NC(=O)c2ccc(OC)cc2)NC1=O | > 100 µM (inactive) | –
65 | COc1cc([N+](=O)[O-])ccc1NC(=S)NNC(=O)c1ccc2c(c1)OCO2 | > 100 µM (inactive) | –
66 | COc1cc(C=NNC(=S)Nc2cccc(C(=O)O)c2)ccc1O | > 100 µM (inactive) | –
67 | Cc1ccc2sc(NNC(=O)c3ccc4c(c3)OCCO4)nc2c1C | > 100 µM (inactive) | –
68 | Cc1cccc(Nc2nc(-c3ccc(O)c(C(N)=O)c3)cs2)c1 | > 100 µM (inactive) | –
69 | Oc1ccc(-c2csc(Nc3cccc4ccccc34)n2)cc1O | – | 4.65 and 4.55
70 | Cc1cccc(Nc2nc(-c3ccc(O)c(O)c3)cs2)c1 | – | 4.22
71 | O=S(=O)(c1ccc(NC(=S)N/N=C/c2ccc(O)c(O)c2)cc1)N1CCOCC1 | – | 4.85
72 | COc1cc(/C=N/N=C2\NC(=O)C(CC(=O)O)S2)cc(OC)c1OC (stereo not given) | > 100 µM (inactive) | –
73 | CCOc1ccc(Nc2nc(-c3ccc(O)c(O)c3)cs2)cc1 | > 100 µM (inactive) | –
74 | Cc1ccc(Nc2nc(-c3ccc(O)cc3O)cs2)cc1C | > 100 µM (inactive) | –
75 | CCOc1cc(C=NNC(=S)NC2CCCCC2)ccc1O | > 100 µM (inactive) | –
